Data reported in article PMC9122626 (2020).

What was measured:
[1] = test system: human telomeric G4 DNA, dAGGG(TTAGGG)3 (DNA, G4) AGGGTTAGGGTTAGGGTTAGGG; assay: thiazole orange displacement (fluorescence); settings: 298 K; at ~8.4 μM peptide; thiazole orange displaced; 0.25 μM G4, 0.50 μM TO
[2] = test system: human telomeric G4 DNA, dAGGG(TTAGGG)3 (DNA, G4) AGGGTTAGGGTTAGGGTTAGGG; assay: CD melting (295 nm); settings: Na+ 100 mM; peptide concentration not given
[3] = test system: ds26 (DNA, duplex) CAATCGGATCGAATTCGATCCGATTG; assay: ITC; settings: Na+ 100 mM
[4] = test system: human telomeric G4 DNA, dAGGG(TTAGGG)3 (DNA, G4) AGGGTTAGGGTTAGGGTTAGGG; assay: EMSA; settings: 30 μM G4; room temperature; up to 120 μM peptide
[5] = test system: human telomeric G4 DNA, dAGGG(TTAGGG)3 (DNA, G4) AGGGTTAGGGTTAGGGTTAGGG; assay: ITC; settings: 298.15 K; 64 μM DNA in cell, 700 μM peptide in syringe

CC(C)[C@H](N)C(=O)N[C@@H](CCC(=O)N[C@@H](CCC(=O)O)C(=O)O)C(=O)N[C@@H](CCC(=O)O)C(=O)O (racemic)
% TO displacement [1]: ~ 6.5% | Tm [2]: ~ -1 °C | Ka [3]: 3360 M⁻¹ | binding [4]: no | binding [5]: no
